Results on 14 compounds are retold here after US12122763B2, “Substituted piperidines for androgen receptor degradation” (UBIX THERAPEUTICS, INC., priority 2020, dated 2024).

What is called inhibition is the percentage by which the read-out fell short of the control. A low value points to a weak effect.

The target of this test is T1, Androgen Receptor (AR) protein (Homo sapiens, UniProt P10275, T878A).
T1 construct: endogenous in cells; host or cells: LNCaP
Kind of test: Androgen Receptor (AR) protein degradation assay in LNCaP cells, western blotting. The class given is cell-based. As to conditions: 20 h; for inhibition at 0.01 µM: 0.01 μM compound; for inhibition at 0.1 µM: 0.1 μM compound; for inhibition at 1 µM: 1 μM compound. The essentials:
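AR protein level was detected by western blot (ECL) against GAPDH or β-actin controls, with 8 μg lysate protein loaded per lane after BCA quantification. Lysates came from LNCaP cells exposed to test compound for 20 h, following 3 days of growth in RPMI/10% FBS.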
On the technique in general: In western blotting, separated proteins are transferred to a membrane and probed.

The structures appear in SMILES notation.

T1 sequence (P10275 whole entry T878A): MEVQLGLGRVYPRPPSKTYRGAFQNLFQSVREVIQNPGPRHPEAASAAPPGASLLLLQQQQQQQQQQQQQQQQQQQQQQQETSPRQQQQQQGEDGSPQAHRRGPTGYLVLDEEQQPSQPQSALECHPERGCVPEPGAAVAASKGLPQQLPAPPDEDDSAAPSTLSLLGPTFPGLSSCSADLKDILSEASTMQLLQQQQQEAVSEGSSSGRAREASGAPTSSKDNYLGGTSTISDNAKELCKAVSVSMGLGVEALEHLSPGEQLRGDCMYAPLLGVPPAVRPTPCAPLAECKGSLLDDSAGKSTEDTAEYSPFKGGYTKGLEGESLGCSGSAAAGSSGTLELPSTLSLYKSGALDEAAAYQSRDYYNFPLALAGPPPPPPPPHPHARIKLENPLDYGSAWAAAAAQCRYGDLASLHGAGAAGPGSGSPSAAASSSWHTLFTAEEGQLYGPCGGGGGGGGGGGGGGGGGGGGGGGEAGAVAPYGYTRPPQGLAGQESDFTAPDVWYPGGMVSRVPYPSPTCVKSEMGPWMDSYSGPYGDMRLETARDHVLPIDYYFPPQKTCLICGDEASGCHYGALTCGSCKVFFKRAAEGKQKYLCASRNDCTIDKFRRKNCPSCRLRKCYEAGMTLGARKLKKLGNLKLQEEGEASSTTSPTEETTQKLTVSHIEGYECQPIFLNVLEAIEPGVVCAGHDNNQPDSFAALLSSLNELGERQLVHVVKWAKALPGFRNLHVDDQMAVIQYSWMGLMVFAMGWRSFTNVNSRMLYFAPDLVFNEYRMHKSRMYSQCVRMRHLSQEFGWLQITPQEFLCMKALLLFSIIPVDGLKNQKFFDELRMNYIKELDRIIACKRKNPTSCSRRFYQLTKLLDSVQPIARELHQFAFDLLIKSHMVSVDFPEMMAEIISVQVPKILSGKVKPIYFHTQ
T1 sequence (Q96SW2 whole entry partner): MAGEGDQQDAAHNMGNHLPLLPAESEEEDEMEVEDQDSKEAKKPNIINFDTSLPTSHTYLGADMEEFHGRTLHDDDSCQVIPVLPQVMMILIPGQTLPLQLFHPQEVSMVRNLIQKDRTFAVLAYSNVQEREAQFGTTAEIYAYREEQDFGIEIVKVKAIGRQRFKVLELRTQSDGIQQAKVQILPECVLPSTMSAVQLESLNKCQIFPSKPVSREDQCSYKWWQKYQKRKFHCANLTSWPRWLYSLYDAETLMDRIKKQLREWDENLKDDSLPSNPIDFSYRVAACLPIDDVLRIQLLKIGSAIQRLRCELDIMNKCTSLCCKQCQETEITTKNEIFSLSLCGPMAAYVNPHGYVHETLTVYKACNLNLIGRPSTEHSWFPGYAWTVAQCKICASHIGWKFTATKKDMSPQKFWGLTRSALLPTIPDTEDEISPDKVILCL

`N#Cc1ccc(N2CCC(C(=O)Nc3ccc(N4CCC(CN5CCN(C6CN(c7ccc8c(c7)C(=O)N(C7CCC(=O)NC7=O)C8=O)C6)CC5)CC4)cn3)CC2)cc1C(F)(F)F` (stereo not drawn) [Example 35, 1-(4-cyano-3-(trifluoromethyl)phenyl)-N-(5-(4-((4-(1-(2-(2,6-dioxopiperidin-3-yl)-1,3-dioxoisoindolin-5-yl)azetidin-3-yl)piperazin-1-yl)methyl)piperidin-1-yl)pyridin-2-yl)piperidine-4-carboxamide] returned an inhibition at 0.01 µM of 71%, an inhibition at 0.1 µM of 97% and an inhibition at 1 µM of 95%.
Take `N#Cc1ccc(N2CCC(C(=O)Nc3ccc(N4CC(CN5CCN(C6CN(c7ccc8c(c7)C(=O)N(C7CCC(=O)NC7=O)C8=O)C6)CC5)C4)cn3)CC2)cc1C(F)(F)F` (stereo not drawn) [Example 36, 1-(4-cyano-3-(trifluoromethyl)phenyl)-N-(5-(3-((4-(1-(2-(2,6-dioxopiperidin-3-yl)-1,3-dioxoisoindolin-5-yl)azetidin-3-yl)piperazin-1-yl)methyl)azetidin-1-yl)pyridin-2-yl)piperidine-4-carboxamide]: the inhibition at 0.01 µM worked out at 66%, the inhibition at 0.1 µM was determined as 94% and 1 µM produced 94% inhibition.
Compound `N#Cc1ccc(N2CCC(C(=O)Nc3ccc(N4CCC(CN5CCN(C[C@@H]6CCN(c7ccc8c(n7)CN(C7CCC(=O)NC7=O)C8=O)C6)CC5)CC4)cn3)CC2)cc1C(F)(F)F` (stereo partly drawn) [Example 37, 1-(4-cyano-3-(trifluoromethyl)phenyl)-N-(5-(4-((4-(((3S)-1-(6-(2,6-dioxopiperidin-3-yl)-5-oxo-6,7-dihydro-5H-pyrrolo[3,4-b]pyridin-2-yl)pyrrolidin-3-yl)methyl)piperazin-1-yl)methyl)piperidin-1-yl)pyridin-2-yl)piperidine-4-carboxamide] showed an inhibition at 0.01 µM of 51%, an inhibition at 0.1 µM of 93% and an inhibition at 1 µM of 90%.
Taken in the same sequence, the figures for `N#Cc1ccc(N2CCC(C(=O)Nc3ccc(N4CCC(CN5CCN(C[C@@H]6CCN(c7cc8c(cc7F)C(=O)N(C7CCC(=O)NC7=O)C8=O)C6)CC5)CC4)cn3)CC2)cc1C(F)(F)F` (stereo partly drawn) [Example 38, 1-(4-cyano-3-(trifluoromethyl)phenyl)-N-(5-(4-((4-(((3S)-1-(2-(2,6-dioxopiperidin-3-yl)-6-fluoro-1,3-dioxoisoindolin-5-yl)pyrrolidin-3-yl)methyl)piperazin-1-yl)methyl)piperidin-1-yl)pyridin-2-yl)piperidine-4-carboxamide] were 44%, 93% and 97%.
For `N#Cc1ccc(N2CCC(C(=O)Nc3ccc(N4CCC(CN5CCN(C[C@H]6CCN(c7ccc8c(n7)CN(C7CCC(=O)NC7=O)C8=O)C6)CC5)CC4)cn3)CC2)cc1C(F)(F)F` (stereo partly drawn) [Example 39, 1-(4-cyano-3-(trifluoromethyl)phenyl)-N-(5-(4-((4-(((3R)-1-(6-(2,6-dioxopiperidin-3-yl)-5-oxo-6,7-dihydro-5H-pyrrolo[3,4-b]pyridin-2-yl)pyrrolidin-3-yl)methyl)piperazin-1-yl)methyl)piperidin-1-yl)pyridin-2-yl)piperidine-4-carboxamide] the same measures were 80%, 98% and 95%.
For the compound `C[C@@H]1CN(CC2CCN(c3ccc(NC(=O)C4CCN(c5ccc(C#N)c(C(F)(F)F)c5)CC4)nc3)CC2)CCN1C1CN(c2ccc3c(c2)C(=O)N(C2CCC(=O)NC2=O)C3=O)C1` (stereo partly drawn) [Example 40, 1-(4-cyano-3-(trifluoromethyl)phenyl)-N-(5-(4-(((3R)-4-(1-(2-(2,6-dioxopiperidin-3-yl)-1,3-dioxoisoindolin-5-yl)azetidin-3-yl)-3-methylpiperazin-1-yl)methyl)piperidin-1-yl)pyridin-2-yl)piperidine-4-carboxamide], at 0.01 µM the inhibition was 43%, the inhibition at 0.1 µM was 94% and 1 µM produced 94% inhibition.
`C[C@@H]1CN(C2CN(c3ccc4c(c3)C(=O)N(C3CCC(=O)NC3=O)C4=O)C2)CCN1CC1CCN(c2ccc(NC(=O)C3CCN(c4ccc(C#N)c(C(F)(F)F)c4)CC3)nc2)CC1` (stereo partly drawn) [Example 41, 1-(4-cyano-3-(trifluoromethyl)phenyl)-N-(5-(4-(((2R)-4-(1-(2-(2,6-dioxopiperidin-3-yl)-1,3-dioxoisoindolin-5-yl)azetidin-3-yl)-2-methylpiperazin-1-yl)methyl)piperidin-1-yl)pyridin-2-yl)piperidine-4-carboxamide] gave an inhibition at 0.01 µM of 62%, an inhibition at 0.1 µM of 93% and an inhibition at 1 µM of 86%.
As for `C[C@@H]1CN(C2CCN(c3ccc4c(c3)C(=O)N(C3CCC(=O)NC3=O)C4=O)CC2)CCN1CC1CCN(c2ccc(NC(=O)C3CCN(c4ccc(C#N)c(C(F)(F)F)c4)CC3)nc2)CC1` (stereo partly drawn) [Example 42, 1-(4-cyano-3-(trifluoromethyl)phenyl)-N-(5-(4-(((2R)-4-(1-(2-(2,6-dioxopiperidin-3-yl)-1,3-dioxoisoindolin-5-yl)piperidin-4-yl)-2-methylpiperazin-1-yl)methyl)piperidin-1-yl)pyridin-2-yl)piperidine-4-carboxamide], 0.01 µM produced 65% inhibition, the inhibition at 0.1 µM was 96% and the inhibition at 1 µM was found to be 94%.
Taken in the same sequence, the figures for `C[C@@H]1CN(C2CCN(c3ccc4c(n3)CN(C3CCC(=O)NC3=O)C4=O)CC2)CCN1CC1CCN(c2ccc(NC(=O)C3CCN(c4ccc(C#N)c(C(F)(F)F)c4)CC3)nc2)CC1` (stereo partly drawn) [Example 43, 1-(4-cyano-3-(trifluoromethyl)phenyl)-N-(5-(4-(((2R)-4-(1-(6-(2,6-dioxopiperidin-3-yl)-5-oxo-6,7-dihydro-5H-pyrrolo[3,4-b]pyridin-2-yl)piperidin-4-yl)-2-methylpiperazin-1-yl)methyl)piperidin-1-yl)pyridin-2-yl)piperidine-4-carboxamide] were 68%, 94% and 83%.
Consider `C[C@@H]1CN(CC2CCN(c3ccc4c(n3)CN(C3CCC(=O)NC3=O)C4=O)CC2)CCN1CC1CCN(c2ccc(NC(=O)C3CCN(c4ccc(C#N)c(C(F)(F)F)c4)CC3)nc2)CC1` (stereo partly drawn) [Example 44, 1-(4-cyano-3-(trifluoromethyl)phenyl)-N-(5-(4-(((2R)-4-((1-(6-(2,6-dioxopiperidin-3-yl)-5-oxo-6,7-dihydro-5H-pyrrolo[3,4-b]pyridin-2-yl)piperidin-4-yl)methyl)-2-methylpiperazin-1-yl)methyl)piperidin-1-yl)pyridin-2-yl)piperidine-4-carboxamide], for which the inhibition at 0.01 µM was determined as 80%, the inhibition at 0.1 µM is 98% and at 1 µM the inhibition was 93%.
For `C[C@H]1CN(C2CCN(c3ccc4c(n3)CN(C3CCC(=O)NC3=O)C4=O)CC2)CCN1CC1CCN(c2ccc(NC(=O)C3CCN(c4ccc(C#N)c(C(F)(F)F)c4)CC3)nc2)CC1` (stereo partly drawn) [Example 45, 1-(4-cyano-3-(trifluoromethyl)phenyl)-N-(5-(4-(((2S)-4-(1-(6-(2,6-dioxopiperidin-3-yl)-5-oxo-6,7-dihydro-5H-pyrrolo[3,4-b]pyridin-2-yl)piperidin-4-yl)-2-methylpiperazin-1-yl)methyl)piperidin-1-yl)pyridin-2-yl)piperidine-4-carboxamide] the same measures were 66%, 95% and 87%.
Taken in the same sequence, the figures for `C[C@H]1CN(CC2CCN(c3ccc4c(n3)CN(C3CCC(=O)NC3=O)C4=O)CC2)CCN1CC1CCN(c2ccc(NC(=O)C3CCN(c4ccc(C#N)c(C(F)(F)F)c4)CC3)nc2)CC1` (stereo partly drawn) [Example 46, 1-(4-cyano-3-(trifluoromethyl)phenyl)-N-(5-(4-(((2S)-4-((1-(6-(2,6-dioxopiperidin-3-yl)-5-oxo-6,7-dihydro-5H-pyrrolo[3,4-b]pyridin-2-yl)piperidin-4-yl)methyl)-2-methylpiperazin-1-yl)methyl)piperidin-1-yl)pyridin-2-yl)piperidine-4-carboxamide] were 70%, 97% and 91%.
Taken in the same sequence, the figures for `C[C@@H]1CN(CC2CCN(c3ccc(NC(=O)C4CCN(c5ccc(C#N)c(C(F)(F)F)c5)CC4)nc3)CC2)CCN1CC1CCN(c2ccc3c(n2)CN(C2CCC(=O)NC2=O)C3=O)CC1` (stereo partly drawn) [Example 47, 1-(4-cyano-3-(trifluoromethyl)phenyl)-N-(5-(4-(((3R)-4-((1-(6-(2,6-dioxopiperidin-3-yl)-5-oxo-6,7-dihydro-5H-pyrrolo[3,4-b]pyridin-2-yl)piperidin-4-yl)methyl)-3-methylpiperazin-1-yl)methyl)piperidin-1-yl)pyridin-2-yl)piperidine-4-carboxamide] were 65%, 95% and 89%.
For `C[C@H]1CN(CC2CCN(c3ccc(NC(=O)C4CCN(c5ccc(C#N)c(C(F)(F)F)c5)CC4)nc3)CC2)CCN1CC1CCN(c2ccc3c(n2)CN(C2CCC(=O)NC2=O)C3=O)CC1` (stereo partly drawn) [Example 48, 1-(4-cyano-3-(trifluoromethyl)phenyl)-N-(5-(4-(((3S)-4-((1-(6-(2,6-dioxopiperidin-3-yl)-5-oxo-6,7-dihydro-5H-pyrrolo[3,4-b]pyridin-2-yl)piperidin-4-yl)methyl)-3-methylpiperazin-1-yl)methyl)piperidin-1-yl)pyridin-2-yl)piperidine-4-carboxamide], at 0.01 µM the inhibition was 59%, testing at 0.1 µM gave an inhibition of 94% and the inhibition at 1 µM worked out at 87%.
